The assay concerns the target RET G810R (Homo sapiens (Human), UniProt P07949, G810R). The assay is described as follows: HTRF KinEASE-TK kinase activity test, RET G810R. The settings on record: for IC50: read-out: RET G810R IC50, HTRF kinase assay; for inhibitory activity against RET G810R relative to that of selpercatinib (LOXO-292): fold versus selpercatinib (LOXO-292).

Structures are written as SMILES.

RET G810R, sequence (P07949 29-1114 G810R): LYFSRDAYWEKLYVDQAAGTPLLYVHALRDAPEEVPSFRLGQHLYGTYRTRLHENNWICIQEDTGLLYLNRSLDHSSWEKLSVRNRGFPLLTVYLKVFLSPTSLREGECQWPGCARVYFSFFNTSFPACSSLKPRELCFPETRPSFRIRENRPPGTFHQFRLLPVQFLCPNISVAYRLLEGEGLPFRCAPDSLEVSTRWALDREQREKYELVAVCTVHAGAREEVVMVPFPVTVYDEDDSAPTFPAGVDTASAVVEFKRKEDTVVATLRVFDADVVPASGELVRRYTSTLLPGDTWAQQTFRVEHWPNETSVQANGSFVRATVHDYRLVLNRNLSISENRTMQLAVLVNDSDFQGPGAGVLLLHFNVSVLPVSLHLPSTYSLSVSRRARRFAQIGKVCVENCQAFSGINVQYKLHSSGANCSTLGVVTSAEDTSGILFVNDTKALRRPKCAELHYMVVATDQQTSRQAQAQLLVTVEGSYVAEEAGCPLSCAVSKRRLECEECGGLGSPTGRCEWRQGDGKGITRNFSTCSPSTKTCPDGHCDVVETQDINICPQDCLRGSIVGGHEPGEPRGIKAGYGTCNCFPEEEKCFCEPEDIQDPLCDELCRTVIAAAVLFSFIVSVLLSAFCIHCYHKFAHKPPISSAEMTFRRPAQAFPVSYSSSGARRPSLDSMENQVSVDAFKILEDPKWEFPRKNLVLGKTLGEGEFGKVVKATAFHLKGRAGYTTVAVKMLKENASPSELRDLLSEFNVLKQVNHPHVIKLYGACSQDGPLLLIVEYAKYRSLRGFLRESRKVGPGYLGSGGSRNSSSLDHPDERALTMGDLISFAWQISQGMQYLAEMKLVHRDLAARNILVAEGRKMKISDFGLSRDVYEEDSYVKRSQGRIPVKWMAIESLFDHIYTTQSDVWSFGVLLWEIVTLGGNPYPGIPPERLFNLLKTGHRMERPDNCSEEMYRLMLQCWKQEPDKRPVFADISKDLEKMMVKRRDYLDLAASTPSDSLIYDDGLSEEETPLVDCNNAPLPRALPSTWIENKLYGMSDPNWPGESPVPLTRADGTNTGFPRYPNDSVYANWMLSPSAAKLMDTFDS

`COc1ccc(CN2C3CC2CN(c2ccc(-c4cc(C#N)cn5nc6[nH]ncc6c45)cn2)C3)cn1` [Compound 243]: the IC50 stood at 89 nM.
Still for that read-out and setting: with `CCOc1cc(-c2ccc(N3CC4CC(C3)N4Cc3ccc(OC)nc3)nc2)c2c3c(C#N)n[nH]c3nn2c1` [Compound 248, 3-cyano-6-ethoxy-4-(6-(6-((6-methoxypyridin-3-yl)methyl)-3,6-diazabicyclo[3.1.1]heptan-3-yl)pyridin-3-yl)-1H-pyrazolo[3′,4′:3,4]pyrazolo[1,5-α]pyridine] the figure was 15.5 nM; with `CCOc1cc(-c2ccc(N3CC[C@H](NC(=O)C(C)C(C)C)[C@H](O)C3)nc2)c2c3cn[nH]c3nn2c1` (stereo partly drawn) [Compound 283, N-((3R,4S)-1-(5-(6-ethoxy-1H-pyrazolo[3′,4′:3,4]pyrazolo[1,5-α]pyridin-4-yl)pyridin-2-yl)-3-hydroxypiperidin-4-yl)-2,3-dimethylbutanamide], 9.9 nM.
Regarding `CCOc1cc(-c2ccc(N3CCC(CN(C)C)(NC(=O)c4c(F)cccc4F)CC3)nc2)c2c3cn[nH]c3nn2c1` [Compound 234, N-(4-((dimethylamino)methyl)-1-(5-(6-ethoxy-1H-pyrazolo[3′,4′:3,4]pyrazolo[1,5-α]pyridin-4-yl)pyridin-2-yl)piperidin-4-yl)-2,6-difluorobenzamide], the “inhibitory activity against RET G810R relative to that of selpercatinib (LOXO-292)” value was not below 10 times and the IC50 stood at 1.6 nM.
Taken in the same sequence, the figures for `CCOc1cc(-c2ccc(N3CC[C@H](NC(=O)c4ccccc4C#N)[C@H](O)C3)nc2)c2c3cn[nH]c3nn2c1` [Compound 280, 2-cyano-N-((3R,4S)-1-(5-(6-ethoxy-1H-pyrazolo[3′,4′:3,4]pyrazolo[1,5-α]pyridin-4-yl)pyridin-2-yl)-3-hydroxypiperidin-4-yl)benzamide] were not below 10 times and 2.1 nM.
`CCOc1cc(-c2ccc(N3CCC(CN(C)C)(C(=O)NCC(C)C)CC3)nc2)c2c3cn[nH]c3nn2c1` [Compound 35, 4-((dimethylamino)methyl)-1-(5-(6-ethoxy-1H-pyrazolo[3′,4′:3,4]pyrazolo[1,5-α]pyridin-4-yl)pyridin-2-yl)-N-isobutylpiperidine-4-carboxamide]: the IC50 was determined as 5.1 nM.
For the compound `O=C(N[C@H]1CCN(c2ccc(-c3cc(OCC(F)F)cn4nc5[nH]ncc5c34)cn2)C[C@@H]1O)c1c(F)cccc1F` [Compound 296, N-((3S,4S)-1-(5-(6-(2,2-difluoroethoxy)-1H-pyrazolo[3′,4′:3,4]pyrazolo[1,5-α]pyridin-4-yl)pyridin-2-yl)-3-hydroxypiperidin-4-yl)-2,6-difluorobenzamide], the “inhibitory activity against RET G810R relative to that of selpercatinib (LOXO-292)” value is listed as not below 10 times and the IC50 was found to be 2.1 nM.
On to `CCOc1cc(-c2ccc(N3C[C@@H]4[C@@H](CNC(=O)c5c(F)cccc5Cl)[C@@H]4C3)nc2)c2c3cn[nH]c3nn2c1` [Compound 183, 2-chloro-N-(((1R,5S,6s)-3-(5-(6-ethoxy-1H-pyrazolo[3′,4′:3,4]pyrazolo[1,5-α]pyridin-4-yl)pyridin-2-yl)-3-azabicyclo[3.1.0]hexan-6-yl)methyl)-6-fluorobenzamide], for which the IC50 came to 8 nM.
Turning to `O=C(N[C@H]1CCN(c2ccc(-c3cc(OCC(F)F)cn4nc5[nH]ncc5c34)cn2)C[C@H]1O)c1c(F)cccc1F` [Compound 268, N-((3R,4S)-1-(5-(6-(2,2-difluoroethoxy)-1H-pyrazolo[3′,4′:3,4]pyrazolo[1,5-α]pyridin-4-yl)pyridin-2-yl)-3-hydroxypiperidin-4-yl)-2,6-difluorobenzamide], the “inhibitory activity against RET G810R relative to that of selpercatinib (LOXO-292)” value is reported as not below 10 times and the IC50 is 2.8 nM.
As to `CCOc1cc(-c2ccc(N3CC4COCC(C3)N4C(=O)c3c(F)cccc3Cl)nc2)c2c3cn[nH]c3nn2c1` [Compound 169, N-(7-(5-(6-ethoxy-1H-pyrazolo[3′,4′:3,4]pyrazolo[1,5-α]pyridin-4-yl)pyridin-2-yl)-3-oxa-7,9-azabicyclo[3.3.1]nonan-9-yl)-2-chloro-6-fluorobenzamide], the IC50 was 4.8 nM.
Take `CCOc1cc(-c2ccc(N3CCN(Cc4ccc(OC)nc4)C4(CC4)C3)nc2)c2c3cn[nH]c3nn2c1` [Compound 165, 6-ethoxy-4-(6-(4-((6-methoxypyridin-3-yl)methylene)-4,7-diazaspiro[2.5]octan-7-yl)pyridin-3-yl) -1H-pyrazolo[3′,4′:3,4]pyrazolo[1,5-α]pyridine]: the IC50 came out at 38.3 nM.
Take `CCOc1cc(-c2cnc(N3CCC(C)(NC(=O)c4cc(F)ccc4Cl)CC3)cn2)c2c3cn[nH]c3nn2c1` [Compound 58, 2-chloro-N-(1-(5-(6-ethoxy-1H-pyrazolo[3′,4′:3,4]pyrazolo[1,5-α]pyridin-4-yl)pyrazin-2-yl)-4-methylpiperidin-4-yl)-5-fluorobenzamide]: the IC50 was found to be 5.6 nM.
With `CCOc1cc(-c2ccc(N3CCC(CN4CCN(CC)CC4)(NC(=O)c4cc(F)ccc4F)CC3)nc2)c2c3cn[nH]c3nn2c1` [Compound 17, N-(1-(5-(6-ethoxy-1H-pyrazolo[3′,4′:3,4]pyrazolo[1,5-α]pyridin-4-yl)pyridin-2-yl)-4-((4-ethylpiperazin-1-yl)methyl)piperidin-4-yl)-2,5-difluorobenzamide], the “inhibitory activity against RET G810R relative to that of selpercatinib (LOXO-292)” value is given as not below 10 times and the IC50 stood at 2.1 nM.
With `CCOc1cc(-c2cnc(N3CC[C@H](NC(=O)c4ncccc4Cl)[C@@H](O)C3)cn2)c2c3cn[nH]c3nn2c1` [Compound 50], the IC50 is 17.9 nM.
Turning to `O=C(N[C@H]1CCN(c2ccc(-c3cc(OCC(F)F)cn4nc5[nH]ncc5c34)cn2)C[C@H]1O)c1c(F)cccc1Cl` [Compound 292, N-((3R,4S)-1-(5-(6-(2,2-difluoroethoxy)-1H-pyrazolo[3′,4′:3,4]pyrazolo[1,5-α]pyridin-4-yl)pyridin-2-yl)piperidin-3-hydroxypiperidin-4-yl)-2-chloro-6-fluorobenzamide], the “inhibitory activity against RET G810R relative to that of selpercatinib (LOXO-292)” value is on record as not below 10 times and the IC50 came out at 1.8 nM.
For the compound `CCOc1cc(-c2ccc(N3CC4CCC3CN4Cc3ccc(OC)nc3)nc2)c2c3cn[nH]c3nn2c1` (stereo not drawn) [Compound 160, 6-ethoxy-4-(6-(5-((6-methoxypyridin-3-yl)methyl)-2,5-diazabicyclo[2.2.2]octan-2-yl)pyridin-3-y 1)-1H-pyrazolo[3′,4′:3,4]pyrazolo[1,5-α]pyridine], the IC50 was 8.2 nM.
On the same count and under the same terms, with `CCOc1cc(-c2ccc(N3CCC(CO)(C(=O)NCC(C)C)CC3)nc2)c2c3cn[nH]c3nn2c1` [Compound 87, 1-(5-(6-ethoxy-1H-pyrazolo[3′,4′:3,4]pyrazolo[1,5-α]pyridin-4-yl)pyridin-2-yl)-4-(hydroxymethy 1)-N-isobutylpiperidine-4-carboxamide] the figure was 9.4 nM.
Same read-out and setting: the figure for `CCOc1cc(-c2ccc(N3CCC(Oc4ccc(C)nn4)CC3)nc2)c2c3cn[nH]c3nn2c1` [Compound 104, 6-ethoxy-4-(6-(4-((6-methylpyridazin-3-yl)oxy)piperidin-1-yl)pyridin-3-yl)-1H-pyrazolo[3′,4′:3,4]pyrazolo[1,5-α]pyridine] is 6.4 nM.
On to `CCOc1cc(-c2ccc(N3CC[C@H](NC(=O)c4c(F)cccc4Cl)[C@H](O)C3)nc2)c2c3cn[nH]c3nn2c1` [Compound 275, N-((3R,4S)-1-(5-(6-ethoxy-1H-pyrazolo[3′,4′:3,4]pyrazolo[1,5-α]pyridin-4-yl)pyridin-2-yl)-3-hydroxypiperidin-4-yl)-2-chloro-6-fluorobenzamide], for which the “inhibitory activity against RET G810R relative to that of selpercatinib (LOXO-292)” value is listed as not below 10 times and the IC50 came to 0.8 nM.
On to `CCOc1cc(-c2ccc(N3CCC(CO)(NCc4ccc(OC)nc4)CC3)nc2)c2c3cn[nH]c3nn2c1` [Compound 229, (1-(5-(6-ethoxy-1H-pyrazolo[3′,4′:3,4]pyrazolo[1,5-α]pyridin-4-yl)pyridin-2-yl)-4-(((6-methoxypyridin-3-yl)methyl)amino)piperidin-4-yl)methanol], for which the IC50 came out at 38.1 nM.
`CCOc1cc(-c2ccc(N3CCC(S(=O)(=O)Cc4ccccc4)CC3)nc2)c2c3cn[nH]c3nn2c1` [Compound 34]: the IC50 came to 4.9 nM.
For `O=C(N[C@H]1CCN(c2ccc(-c3cc(OCC(F)F)cn4nc5[nH]ncc5c34)cn2)C[C@H]1O)c1cc(F)ccc1Cl` [Compound 293, N-((3R,4S)-1-(5-(6-(2,2-difluoroethoxy)-1H-pyrazolo[3′,4′:3,4]pyrazolo[1,5-α]pyridin-4-yl)pyridin-2-yl)piperidin-3-hydroxypiperidin-4-yl)-2-chloro-5-fluorobenzamide], the “inhibitory activity against RET G810R relative to that of selpercatinib (LOXO-292)” value is not below 10 times and the IC50 amounted to 1.6 nM.
Regarding `CCOc1cc(-c2cnc(N3CCC(C)(NC(=O)c4ncc(F)cc4Cl)CC3)cn2)c2c3cn[nH]c3nn2c1` [Compound 55, 3-chloro-N-(1-(5-(6-ethoxy-1H-pyrazolo[3′,4′:3,4]pyrazolo[1,5-α]pyridin-4-yl)pyrazin-2-yl)-4-methylpiperidin-4-yl)-5-fluoro-2-picolinamide], the IC50 stood at 4.5 nM.
As for `CCOc1cc(-c2ccc(N3CC[C@H](NC(=O)C4(F)CC4)[C@H](O)C3)nc2)c2c3cn[nH]c3nn2c1` [Compound 282, N-((3R,4S)-1-(5-(6-ethoxy-1H-pyrazolo[3′,4′:3,4]pyrazolo[1,5-α]pyridin-4-yl)pyridin-2-yl)-3-hydroxypiperidin-4-yl)-1-fluorocyclopropane-1-carboxamide], the “inhibitory activity against RET G810R relative to that of selpercatinib (LOXO-292)” value is not below 10 times and the IC50 came out at 3.5 nM.
Taken in the same sequence, the figures for `CCOc1cc(-c2ccc(N3CC[C@H](NS(=O)(=O)c4c(F)cccc4F)[C@H](O)C3)nc2)c2c3cn[nH]c3nn2c1` [Compound 269, N-((3R,4S)-1-(5-(6-ethoxy-1H-pyrazolo[3′,4′:3,4]pyrazolo[1,5-α]pyridin-4-yl)pyridin-2-yl)-3-hydroxypiperidin-4-yl)-2,6-difluorobenzenesulfonamide] were not below 10 times and 6.2 nM.
Turning to `CCOc1cc(-c2ccc(N3CCC(S(=O)(=O)NC(C)C)CC3)nc2)c2c3cn[nH]c3nn2c1` [Compound 101, 1-(5-(6-ethoxy-1H-pyrazolo[3′,4′:3,4]pyrazolo[1,5-α]pyridin-4-yl)pyridin-2-yl)-N-isopropylpiperidine-4-sulfonamide], the IC50 worked out at 6.6 nM.

The values are drawn from US20240174674A1, “NITROGEN-CONTAINING POLYCYCLIC FUSED RING COMPOUND, PHARMACEUTICAL COMPOSITION THEREOF, PREPARATION METHOD THEREFOR, AND USE THEREOF” (APPLIED PHARMACEUTICAL SCIENCE, INC., priority 2021, published 2024).
